Earlier results on 14 compounds are cited in Sander's compilation of Henry's law constants (doi:10.1093/bja/45.3.282).

The nature of the series: Henry solubility constant Hcp at 310 K (mol/(m3 Pa)). Particulars: reference: Steward et al. (1973); cited value.
In the case of `ClC=C(Cl)Cl` [trichloroethene], the “Henry solubility constant Hcp at 310 K” value is 0.00066.
As for `C=COC=C` [divinyl ether], the “Henry solubility constant Hcp at 310 K” value is 0.00054.
Take `C1CC1` [cyclopropane]: the “Henry solubility constant Hcp at 310 K” value was 8.1e-05.
For `COC(F)(F)C(Cl)Cl` [2,2-dichloro-1,1-difluoro-1-methoxyethane], the “Henry solubility constant Hcp at 310 K” value is 0.0017.
Take `FC(F)OC(F)(F)C(F)Cl` (centres undefined) [2-chloro-1,1,2-trifluoroethyl difluoromethyl ether]: the “Henry solubility constant Hcp at 310 K” value is 0.0003.
With `C=COCC(F)(F)F` [(2,2,2-trifluoroethoxy)-ethene], the “Henry solubility constant Hcp at 310 K” value is 0.00033.
As to `FC(F)OC(Cl)C(F)(F)F` (centres undefined) [1-chloro-2,2,2-trifluoroethyl difluoromethyl ether], the “Henry solubility constant Hcp at 310 K” value was 0.00024.
Turning to `FC(F)(F)C(Cl)Br` (centres undefined) [1-bromo-1-chloro-2,2,2-trifluoroethane], the “Henry solubility constant Hcp at 310 K” value is 0.00031.
Regarding `[Xe]` [xenon], the “Henry solubility constant Hcp at 310 K” value is 3.3e-05.
Turning to `[N-]=[N+]=O` [dinitrogen monoxide], the “Henry solubility constant Hcp at 310 K” value was 0.00018.
In the case of `CCCl` [chloroethane], the “Henry solubility constant Hcp at 310 K” value was 0.00047.
Turning to `[Kr]` [krypton], the “Henry solubility constant Hcp at 310 K” value is 2e-05.
For `CCOCC` [diethyl ether], the “Henry solubility constant Hcp at 310 K” value was 0.005.
`C=C` [ethene]: the “Henry solubility constant Hcp at 310 K” value was 3.5e-05.
